Assay results: publication PMC5290327, “SC83288 is a clinical development candidate for the treatment of severe malaria” (Nature Communications, 2017)

Experiments:
Assay in all cases: KINOMEscan
Type in all cases: binding
Conditions in all cases: read-out: Remaining enzyme activity
RIPK2 = biological target: T1, RIPK2 (Homo sapiens, UniProt O43353)
T1 construct: purchased Ambit (DiscoverX) KINOMEscan; Cerep
Procedure, shortened: (§1)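 Measures displacement of tagged kinase from an immobilized active-site probe rather than enzymatic activity. SC81458 was added at 10 μM final from a 40x stock in 100% DMSO. Bound kinase was eluted and counted via qPCR.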

BMPR1a = biological target: T2, BMPR1a (Homo sapiens, UniProt P36894)
T2 construct: purchased Ambit (DiscoverX) KINOMEscan; Cerep
T2 sequence (P36894 24-532): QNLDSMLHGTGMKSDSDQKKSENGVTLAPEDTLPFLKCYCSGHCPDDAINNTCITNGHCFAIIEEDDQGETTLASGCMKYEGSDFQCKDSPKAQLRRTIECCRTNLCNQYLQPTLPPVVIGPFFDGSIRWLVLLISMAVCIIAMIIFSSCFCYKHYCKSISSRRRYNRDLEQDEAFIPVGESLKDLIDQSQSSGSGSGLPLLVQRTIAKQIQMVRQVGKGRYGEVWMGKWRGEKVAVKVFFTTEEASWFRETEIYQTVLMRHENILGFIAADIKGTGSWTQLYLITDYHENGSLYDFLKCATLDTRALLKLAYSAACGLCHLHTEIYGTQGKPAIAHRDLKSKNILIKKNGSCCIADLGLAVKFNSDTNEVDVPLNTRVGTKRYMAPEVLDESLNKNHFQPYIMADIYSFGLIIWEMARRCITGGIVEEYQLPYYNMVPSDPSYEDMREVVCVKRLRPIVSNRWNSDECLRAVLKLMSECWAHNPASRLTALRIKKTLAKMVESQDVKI
Procedure, shortened: as §1

WEE1 = biological target: T3, WEE1 (Homo sapiens, UniProt P30291)
T3 construct: purchased Ambit (DiscoverX) KINOMEscan; Cerep
Procedure, shortened: as §1

FLT3(K663Q) = biological target: T4, FLT3(K663Q) (Homo sapiens, UniProt P36888, K663Q)
T4 construct: purchased Ambit (DiscoverX) KINOMEscan; Cerep
Procedure, shortened: as §1

PRKR = biological target: T5, PRKR (Homo sapiens, UniProt P19525)
T5 construct: purchased Ambit (DiscoverX) KINOMEscan; Cerep
Procedure, shortened: as §1

FES = biological target: T6, FES (Homo sapiens, UniProt P07332)
T6 construct: purchased Ambit (DiscoverX) KINOMEscan; Cerep
Procedure, shortened: as §1

LIMK2 = biological target: T7, LIMK2 (Homo sapiens, UniProt P53671)
T7 construct: purchased Ambit (DiscoverX) KINOMEscan; Cerep
Procedure, shortened: as §1

FLT4 = biological target: T8, FLT4 (Homo sapiens, UniProt P35916)
T8 construct: purchased Ambit (DiscoverX) KINOMEscan; Cerep
Procedure, shortened: as §1

GRK1 = biological target: T9, GRK1 (Homo sapiens, UniProt Q15835)
T9 construct: purchased Ambit (DiscoverX) KINOMEscan; Cerep
T9 sequence (Q15835 whole entry): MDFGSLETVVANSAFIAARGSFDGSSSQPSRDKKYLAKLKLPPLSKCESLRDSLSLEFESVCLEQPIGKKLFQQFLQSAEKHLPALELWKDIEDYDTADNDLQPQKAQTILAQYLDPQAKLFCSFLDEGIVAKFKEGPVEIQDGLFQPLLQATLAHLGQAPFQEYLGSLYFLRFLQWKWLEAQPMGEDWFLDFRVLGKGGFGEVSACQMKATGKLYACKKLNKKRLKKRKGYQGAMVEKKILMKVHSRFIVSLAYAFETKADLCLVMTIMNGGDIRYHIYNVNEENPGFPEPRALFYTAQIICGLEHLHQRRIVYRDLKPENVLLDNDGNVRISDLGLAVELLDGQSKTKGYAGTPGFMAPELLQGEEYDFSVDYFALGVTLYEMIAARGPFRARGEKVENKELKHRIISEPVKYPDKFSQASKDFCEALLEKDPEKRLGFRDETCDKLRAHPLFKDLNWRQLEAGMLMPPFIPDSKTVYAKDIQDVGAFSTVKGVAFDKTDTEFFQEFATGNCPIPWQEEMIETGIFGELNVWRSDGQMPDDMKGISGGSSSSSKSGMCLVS
Procedure, shortened: as §1

PRKD1 = biological target: T10, PRKD1 (Homo sapiens, UniProt Q15139)
T10 construct: purchased Ambit (DiscoverX) KINOMEscan; Cerep
Procedure, shortened: as §1

GRK7 = biological target: T11, GRK7 (Homo sapiens, UniProt Q8WTQ7)
T11 construct: purchased Ambit (DiscoverX) KINOMEscan; Cerep
T11 sequence (Q8WTQ7 whole entry): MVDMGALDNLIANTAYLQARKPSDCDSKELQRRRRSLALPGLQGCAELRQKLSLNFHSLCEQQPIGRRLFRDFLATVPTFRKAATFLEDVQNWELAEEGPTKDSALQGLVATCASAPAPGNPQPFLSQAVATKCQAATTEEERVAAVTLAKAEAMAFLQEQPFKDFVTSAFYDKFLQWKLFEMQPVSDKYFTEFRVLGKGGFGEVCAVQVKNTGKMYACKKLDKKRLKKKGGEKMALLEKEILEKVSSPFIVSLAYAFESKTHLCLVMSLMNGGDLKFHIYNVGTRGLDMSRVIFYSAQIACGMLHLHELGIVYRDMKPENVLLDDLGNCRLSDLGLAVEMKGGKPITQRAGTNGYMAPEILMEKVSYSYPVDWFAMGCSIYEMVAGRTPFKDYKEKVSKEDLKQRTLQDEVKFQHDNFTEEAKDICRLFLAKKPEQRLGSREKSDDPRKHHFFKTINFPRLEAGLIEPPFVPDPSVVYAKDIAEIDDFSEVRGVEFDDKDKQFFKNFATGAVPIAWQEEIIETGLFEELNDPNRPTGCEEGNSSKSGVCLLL
Procedure, shortened: as §1

RIPK4 = biological target: T12, RIPK4 (Homo sapiens, UniProt P57078)
T12 construct: purchased Ambit (DiscoverX) KINOMEscan; Cerep
Procedure, shortened: as §1

MKNK2 = biological target: T13, MKNK2 (Homo sapiens, UniProt Q9HBH9)
T13 construct: purchased Ambit (DiscoverX) KINOMEscan; Cerep
Procedure, shortened: as §1

PFTAIRE2 = biological target: T14, PFTAIRE2 (Homo sapiens, UniProt Q96Q40)
T14 construct: purchased Ambit (DiscoverX) KINOMEscan; Cerep
Procedure, shortened: as §1

PFTK1 = biological target: T15, PFTK1 (Homo sapiens, UniProt O94921)
T15 construct: purchased Ambit (DiscoverX) KINOMEscan; Cerep
Procedure, shortened: as §1

EGFR(L858R) = biological target: T16, EGFR(L858R) (Homo sapiens, UniProt P00533, L858R)
T16 construct: purchased Ambit (DiscoverX) KINOMEscan; Cerep
Procedure, shortened: as §1

MET = biological target: T17, MET (Homo sapiens, UniProt P08581)
T17 construct: purchased Ambit (DiscoverX) KINOMEscan; Cerep
Procedure, shortened: as §1

ULK2 = biological target: T18, ULK2 (Homo sapiens, UniProt Q8IYT8)
T18 construct: purchased Ambit (DiscoverX) KINOMEscan; Cerep
Procedure, shortened: as §1

CDKL5 = biological target: T19, CDKL5 (Homo sapiens, UniProt O76039)
T19 construct: purchased Ambit (DiscoverX) KINOMEscan; Cerep
T19 sequence (O76039 whole entry): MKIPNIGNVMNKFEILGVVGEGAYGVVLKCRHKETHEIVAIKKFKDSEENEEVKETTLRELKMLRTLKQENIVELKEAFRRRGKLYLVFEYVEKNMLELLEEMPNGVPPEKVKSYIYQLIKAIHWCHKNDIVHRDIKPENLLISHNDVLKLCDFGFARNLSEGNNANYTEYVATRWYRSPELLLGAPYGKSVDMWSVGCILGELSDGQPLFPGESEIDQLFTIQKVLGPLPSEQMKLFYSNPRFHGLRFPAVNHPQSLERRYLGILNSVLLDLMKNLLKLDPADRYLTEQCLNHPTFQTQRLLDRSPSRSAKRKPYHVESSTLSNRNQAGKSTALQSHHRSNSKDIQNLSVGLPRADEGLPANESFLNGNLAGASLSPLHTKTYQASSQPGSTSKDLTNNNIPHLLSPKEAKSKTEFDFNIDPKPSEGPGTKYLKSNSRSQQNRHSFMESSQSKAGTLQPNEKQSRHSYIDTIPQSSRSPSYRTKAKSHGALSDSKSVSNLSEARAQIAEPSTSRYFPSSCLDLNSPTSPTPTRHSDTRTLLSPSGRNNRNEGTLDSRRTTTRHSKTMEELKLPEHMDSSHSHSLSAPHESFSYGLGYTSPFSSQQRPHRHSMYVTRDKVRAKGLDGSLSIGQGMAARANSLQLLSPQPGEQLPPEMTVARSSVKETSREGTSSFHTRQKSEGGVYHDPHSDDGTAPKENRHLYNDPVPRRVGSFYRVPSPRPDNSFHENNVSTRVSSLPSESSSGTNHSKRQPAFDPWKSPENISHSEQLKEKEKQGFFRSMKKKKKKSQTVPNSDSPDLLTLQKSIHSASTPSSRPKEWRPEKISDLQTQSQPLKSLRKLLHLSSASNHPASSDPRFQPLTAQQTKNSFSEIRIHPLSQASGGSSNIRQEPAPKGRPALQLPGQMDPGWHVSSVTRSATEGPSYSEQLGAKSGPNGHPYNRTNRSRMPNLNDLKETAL
Procedure, shortened: as §1

TLK1 = biological target: T20, TLK1 (Homo sapiens, UniProt Q9UKI8)
T20 construct: purchased Ambit (DiscoverX) KINOMEscan; Cerep
Procedure, shortened: as §1

ERBB2 = biological target: T21, ERBB2 (Homo sapiens, UniProt P04626)
T21 construct: purchased Ambit (DiscoverX) KINOMEscan; Cerep
Procedure, shortened: as §1

CHEK2 = biological target: T22, CHEK2 (Homo sapiens, UniProt O96017)
T22 construct: purchased Ambit (DiscoverX) KINOMEscan; Cerep
T22 sequence (O96017 whole entry): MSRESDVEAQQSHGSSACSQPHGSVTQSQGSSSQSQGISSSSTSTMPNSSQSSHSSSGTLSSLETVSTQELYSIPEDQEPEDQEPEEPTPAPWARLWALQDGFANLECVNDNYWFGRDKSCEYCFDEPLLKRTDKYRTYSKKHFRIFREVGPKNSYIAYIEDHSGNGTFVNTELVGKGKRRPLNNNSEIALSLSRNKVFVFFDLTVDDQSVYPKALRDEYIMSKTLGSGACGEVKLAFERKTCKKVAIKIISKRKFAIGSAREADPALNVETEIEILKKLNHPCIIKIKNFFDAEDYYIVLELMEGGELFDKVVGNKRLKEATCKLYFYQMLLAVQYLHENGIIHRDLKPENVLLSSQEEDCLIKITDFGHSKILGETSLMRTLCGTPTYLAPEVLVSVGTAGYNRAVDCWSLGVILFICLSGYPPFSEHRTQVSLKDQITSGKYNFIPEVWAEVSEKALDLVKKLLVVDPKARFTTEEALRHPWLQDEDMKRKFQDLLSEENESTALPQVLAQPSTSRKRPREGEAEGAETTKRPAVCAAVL
Procedure, shortened: as §1

[1] = biological target: T23, TYK2(JHdomain-speudokinase) (Homo sapiens, UniProt P29597)
T23 construct: TYK2(JHdomain-speudokinase); purchased Ambit (DiscoverX) KINOMEscan; Cerep
Procedure, shortened: as §1

NIM1 = biological target: T24, NIM1 (Homo sapiens, UniProt Q8IY84)
T24 construct: purchased Ambit (DiscoverX) KINOMEscan; Cerep
Procedure, shortened: as §1

RIOK3 = biological target: T25, RIOK3 (Homo sapiens, UniProt O14730)
T25 construct: purchased Ambit (DiscoverX) KINOMEscan; Cerep
Procedure, shortened: as §1

p38-alpha = biological target: T26, p38-alpha (Homo sapiens, UniProt Q16539)
T26 construct: purchased Ambit (DiscoverX) KINOMEscan; Cerep
Procedure, shortened: as §1

[2] = biological target: T27, RPS6KA5(Kin.Dom.2-C-term) (Homo sapiens, UniProt O75582)
T27 construct: RPS6KA5(Kin.Dom.2-C-term); purchased Ambit (DiscoverX) KINOMEscan; Cerep
T27 sequence (O75582 426-687 limits assumed): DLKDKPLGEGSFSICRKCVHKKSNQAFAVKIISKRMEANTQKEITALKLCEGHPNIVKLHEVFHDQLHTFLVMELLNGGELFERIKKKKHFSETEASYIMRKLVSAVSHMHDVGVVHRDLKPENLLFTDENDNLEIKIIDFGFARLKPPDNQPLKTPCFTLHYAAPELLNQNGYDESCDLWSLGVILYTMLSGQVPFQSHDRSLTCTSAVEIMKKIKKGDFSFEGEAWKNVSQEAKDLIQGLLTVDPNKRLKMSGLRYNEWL
Procedure, shortened: as §1

NLK = biological target: T28, NLK (Homo sapiens, UniProt Q9UBE8)
T28 construct: purchased Ambit (DiscoverX) KINOMEscan; Cerep
T28 sequence (Q9UBE8 whole entry): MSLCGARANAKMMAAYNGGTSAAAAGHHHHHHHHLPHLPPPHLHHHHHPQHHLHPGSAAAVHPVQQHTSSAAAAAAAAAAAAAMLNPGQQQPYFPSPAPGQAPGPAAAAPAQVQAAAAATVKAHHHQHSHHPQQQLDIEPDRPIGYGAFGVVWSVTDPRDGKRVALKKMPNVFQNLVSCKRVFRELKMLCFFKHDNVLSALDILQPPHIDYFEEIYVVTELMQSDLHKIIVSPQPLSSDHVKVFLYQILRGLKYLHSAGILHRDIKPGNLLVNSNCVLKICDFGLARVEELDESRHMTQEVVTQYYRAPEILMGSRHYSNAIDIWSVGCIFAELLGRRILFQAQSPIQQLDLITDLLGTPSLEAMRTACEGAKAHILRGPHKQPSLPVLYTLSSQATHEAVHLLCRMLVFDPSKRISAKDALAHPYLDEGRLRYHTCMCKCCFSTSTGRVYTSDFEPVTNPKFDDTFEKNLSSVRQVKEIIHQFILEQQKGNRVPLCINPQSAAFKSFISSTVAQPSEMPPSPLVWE
Procedure, shortened: as §1

FRK = biological target: T29, FRK (Homo sapiens, UniProt P42685)
T29 construct: purchased Ambit (DiscoverX) KINOMEscan; Cerep
T29 sequence (P42685 whole entry): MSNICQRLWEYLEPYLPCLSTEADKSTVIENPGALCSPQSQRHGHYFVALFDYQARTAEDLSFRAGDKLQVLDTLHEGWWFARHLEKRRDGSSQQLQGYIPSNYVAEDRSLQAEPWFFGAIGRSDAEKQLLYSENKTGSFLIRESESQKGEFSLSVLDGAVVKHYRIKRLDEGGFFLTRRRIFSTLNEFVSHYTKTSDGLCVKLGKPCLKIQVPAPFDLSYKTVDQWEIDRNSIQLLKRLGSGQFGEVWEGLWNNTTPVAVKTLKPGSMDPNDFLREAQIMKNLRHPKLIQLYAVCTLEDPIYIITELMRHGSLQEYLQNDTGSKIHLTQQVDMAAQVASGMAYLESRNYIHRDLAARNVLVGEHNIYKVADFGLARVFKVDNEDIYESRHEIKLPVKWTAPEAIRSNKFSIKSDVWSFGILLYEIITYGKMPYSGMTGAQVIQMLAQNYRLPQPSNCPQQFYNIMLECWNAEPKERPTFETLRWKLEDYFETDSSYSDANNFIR
Procedure, shortened: as §1

ACVR1b = biological target: T30, ACVR1b (Homo sapiens, UniProt P36896)
T30 construct: purchased Ambit (DiscoverX) KINOMEscan; Cerep
Procedure, shortened: as §1

EGFR(G719C) = biological target: T31, EGFR(G719C) (Homo sapiens, UniProt P00533, G719C)
T31 construct: purchased Ambit (DiscoverX) KINOMEscan; Cerep
Procedure, shortened: as §1

TYRO3 = biological target: T32, TYRO3 (Homo sapiens, UniProt Q06418)
T32 construct: purchased Ambit (DiscoverX) KINOMEscan; Cerep
Procedure, shortened: as §1

BRAF(V600E) = biological target: T33, BRAF(V600E) (Homo sapiens, UniProt P15056, V600E)
T33 construct: purchased Ambit (DiscoverX) KINOMEscan; Cerep
Procedure, shortened: as §1

T1 sequence (O43353 whole entry): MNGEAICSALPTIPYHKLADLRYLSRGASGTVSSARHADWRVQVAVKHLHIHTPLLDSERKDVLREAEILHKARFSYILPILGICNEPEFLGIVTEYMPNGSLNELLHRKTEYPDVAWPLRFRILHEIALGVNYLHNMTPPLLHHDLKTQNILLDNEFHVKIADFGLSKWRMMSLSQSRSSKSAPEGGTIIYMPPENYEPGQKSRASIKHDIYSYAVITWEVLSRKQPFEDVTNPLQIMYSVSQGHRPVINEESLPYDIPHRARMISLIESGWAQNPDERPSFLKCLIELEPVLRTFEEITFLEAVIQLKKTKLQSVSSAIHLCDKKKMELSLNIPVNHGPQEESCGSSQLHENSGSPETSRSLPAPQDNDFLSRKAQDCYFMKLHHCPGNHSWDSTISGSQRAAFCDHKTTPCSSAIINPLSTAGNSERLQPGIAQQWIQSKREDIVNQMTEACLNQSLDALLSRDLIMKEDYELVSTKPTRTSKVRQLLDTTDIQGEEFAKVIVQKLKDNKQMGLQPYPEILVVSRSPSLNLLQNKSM

`CCCCN1CCN(C(=N)c2cccc(NC(=O)Nc3ccc(S(=O)(=O)NCc4ccc(S(N)(=O)=O)cc4)cc3)c2)CC1` [SC81458, 4-(3-(3-((4-butylpiperazin-1-yl)(imino)methyl)phenyl)ureido)-N-(4-sulfamoylbenzyl) benzenesulfonamide] showed a remaining binding at 10 µM (RIPK2) of 96%, a remaining binding at 10 µM (BMPR1a) of 100% and a remaining binding at 10 µM (WEE1) of 100%. The remaining binding at 10 µM (FLT3(K663Q)) was 93%, the remaining binding at 10 µM (PRKR) was 91% and the remaining binding at 10 µM (FES) was 100%. For the same compound, the remaining binding at 10 µM (LIMK2) was 100%, the remaining binding at 10 µM (FLT4) was 100% and the remaining binding at 10 µM (GRK1) was 100%. For the same compound, the remaining binding at 10 µM (PRKD1) was 65%, the remaining binding at 10 µM (GRK7) was 100% and the remaining binding at 10 µM (RIPK4) was 74%. It also gave a remaining binding at 10 µM (MKNK2) of 100%, a remaining binding at 10 µM (PFTAIRE2) of 100% and a remaining binding at 10 µM (PFTK1) of 100%. For the same compound, the remaining binding at 10 µM (EGFR(L858R)) was 92%, the remaining binding at 10 µM (MET) was 78% and the remaining binding at 10 µM (ULK2) was 100%. For the same compound, the remaining binding at 10 µM (CDKL5) was 100%, the remaining binding at 10 µM (TLK1) was 100% and the remaining binding at 10 µM (ERBB2) was 100%. For the same compound, the remaining binding at 10 µM (CHEK2) was 100%, the remaining binding at 10 µM [1] was 93% and the remaining binding at 10 µM (NIM1) was 100%. It also gave a remaining binding at 10 µM (RIOK3) of 77%, a remaining binding at 10 µM (p38-alpha) of 88% and a remaining binding at 10 µM [2] of 100%. The remaining binding at 10 µM (NLK) was 95%, the remaining binding at 10 µM (FRK) was 100% and the remaining binding at 10 µM (ACVR1b) was 100%. It also gave a remaining binding at 10 µM (EGFR(G719C)) of 80%, a remaining binding at 10 µM (TYRO3) of 79% and a remaining binding at 10 µM (BRAF(V600E)) of 100%.
